# Data taken from patent US20240016781A1, “TREATMENT OF KRAS MUTANT CANCERS” (MEI Pharma, Inc., priority 2020, published 2024).
# Read-outs that look alike come from different tables or passages of the source.
# What was measured:
# Assay in all cases: 72-hour CellTiter-Glo 2.0 growth inhibition screen (single agent, 9x9 combination dose matrix);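 as to Best CI Level: inhibition effect level at which the best CI was calculated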
# Type in all cases: cell-based
# [1] = test system: LS-513; conditions: for EC50 / IC50 / Emax / GI50: Homo sapiens; for EC50: LS-513, 72 h; for EC50 / IC50 / Emax / GI50 / Response Area: LS-513, Colorectal;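 as to Best CI Level: inhibition effect level at which the best CI was calculated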
# [2] = test system: NCI-H358; conditions: for EC50 / IC50 / Emax / GI50: Homo sapiens; for EC50: NCI-H358, 72 h; for EC50 / IC50 / Emax / GI50 / Response Area: NCl-H358, Lung; for IC50 / Emax / GI50: NCI-H358;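 as to Best CI Level: inhibition effect level at which the best CI was calculated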
# [3] = test system: Panc 04.03; conditions: for EC50 / Response Area: Panc 04.03, Pancreas;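 as to Best CI Level: inhibition effect level at which the best CI was calculated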
# [4] = test system: SW837; conditions: for EC50 / IC50 / Emax / GI50: Homo sapiens; for EC50: SW837, 72 h; for EC50 / IC50 / Emax / GI50 / Response Area: SW837, Colorectal;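 as to Best CI Level: inhibition effect level at which the best CI was calculated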
# [5] = Additional Single Agent Responses (inhibition, % I), 72 h
# [6] = growth inhibition (GI) curve, single agent, 72 h
# [7] = Additional Single Agent Responses, 72 h, read-out: Max Response (% I)
# [8] = growth inhibition (GI), single agent, 72 h, read-out: Max Response (% GI)
# [9] = LS-513 (KRAS G12D), enhancer + MEI-522 (Voruciclib), 72 h;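 as to Best CI Level: inhibition effect level at which the best CI was calculated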
# [10] = growth inhibition (GI), AUC, single agent, 72 h
# [11] = enhancer combined with MEI-522 (Voruciclib), LS-513 (Colorectal), 72 hours, inhibition data
# [12] = NCl-H358 (KRAS G12C), enhancer + MEI-522 (Voruciclib), 72 h
# [13] = enhancer combined with MEI-522 (Voruciclib), NCl-H358 (Lung), 72 hours, inhibition data
# [14] = Homo sapiens, Panc 04.03, 72 h, Additional Single Agent Responses (inhibition, % I), 72 h
# [15] = Homo sapiens, Panc 04.03, 72 h, growth inhibition (GI) curve, single agent, 72 h
# [16] = Homo sapiens, Panc 04.03, 72 h, read-out: Max Response (% GI)
# [17] = Homo sapiens, Panc 04.03, 72 h, read-out: Max Response (% I)
# [18] = Panc 04.03 (KRAS G12D), enhancer + MEI-522 (Voruciclib), 72 h;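 as to Best CI Level: inhibition effect level at which the best CI was calculated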
# [19] = enhancer combined with MEI-522 (Voruciclib), Panc 04.03 (Pancreas), 72 hours, inhibition data
# [20] = SW837 (KRAS G12C), enhancer + MEI-522 (Voruciclib), 72 h;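 as to Best CI Level: inhibition effect level at which the best CI was calculated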
# [21] = enhancer combined with MEI-522 (Voruciclib), SW837 (Colorectal), 72 hours, inhibition data
smiles,measurement,setting,value
CC[C@@H]1C(=O)N(C)c2cnc(Nc3ccc(C(=O)N[C@H]4CC[C@H](N5CCN(CC6CC6)CC5)CC4)cc3OC)nc2N1C(C)C [Volasertib],EC50,[1]; [5],18.6 nM
same,EC50,[1]; [6],18.5 nM
same,IC50,[1]; [5],23.9 nM
same,Emax,[1]; [7],74%
same,GI50,[1]; [6],20 nM
same,Emax,[1]; [8],91%
same,Best CI,[1]; [9],0.60
same,Bliss Volume,[1]; [9],3.16
same,HSA volume,[1]; [9],1.53
same,Loewe Volume,[1]; [9],1.21
same,Synergy Score,[1]; [9],5.33
same,Response Area,[1]; [5],3.44
same,Response Area,[1]; [10],4.22
same,Best CI,[1]; [11],0.62
same,Best CI Level,[1]; [11],80
same,Bliss Volume,[1]; [11],−1.28
same,HSA volume,[1]; [11],0.04
same,Loewe Volume,[1]; [11],0.06
same,Synergy Score,[1]; [11],1.44
same,EC50,[2]; [5],6.1 nM
same,EC50,[2]; [6],6.1 nM
same,IC50,[2]; [5],7.8 nM
same,Emax,[2]; [7],75%
same,GI50,[2]; [6],6.5 nM
same,Emax,[2]; [8],100%
same,Bliss Volume,[2]; [12],−1.58
same,HSA volume,[2]; [12],−4.12
same,Loewe Volume,[2]; [12],−3.93
same,Synergy Score,[2]; [12],3.21
same,Response Area,[2]; [5],3.44
same,Response Area,[2]; [10],4.57
same,Best CI,[2]; [13],0.80
same,Best CI Level,[2]; [13],20
same,Bliss Volume,[2]; [13],−4.08
same,HSA volume,[2]; [13],−3.08
same,Loewe Volume,[2]; [13],−3.28
same,Synergy Score,[2]; [13],0.69
same,GI50,"[3]; Homo sapiens, Panc 04.03, 72 h",4.6 nM
same,IC50,"[3]; Homo sapiens, Panc 04.03, 72 h",5.9 nM
same,EC50,[3]; [14],4.2 nM
same,EC50,[3]; [15],4.2 nM
same,Emax,[3]; [16],87%
same,Emax,[3]; [17],64%
same,Best CI,[3]; [18],0.74
same,Bliss Volume,[3]; [18],4.14
same,HSA volume,[3]; [18],2.74
same,Loewe Volume,[3]; [18],1.36
same,Synergy Score,[3]; [18],7.71
same,Response Area,[3]; [5],2.78
same,Response Area,[3]; [10],3.75
same,Best CI,[3]; [19],0.67
same,Best CI Level,[3]; [19],80
same,Bliss Volume,[3]; [19],−0.87
same,HSA volume,[3]; [19],1.03
same,Loewe Volume,[3]; [19],0.18
same,Synergy Score,[3]; [19],2.30
same,EC50,[4]; [5],13.8 nM
same,EC50,[4]; [6],20.1 nM
same,IC50,[4]; [5],21 nM
same,Emax,[4]; [7],79%
same,GI50,[4]; [6],14.8 nM
same,Emax,[4]; [8],128%
same,Best CI,[4]; [20],0.72
same,Bliss Volume,[4]; [20],4.69
same,HSA volume,[4]; [20],2.14
same,Loewe Volume,[4]; [20],0.39
same,Synergy Score,[4]; [20],5.42
same,Response Area,[4]; [5],3.61
same,Response Area,[4]; [10],5.63
same,Best CI,[4]; [21],0.83
same,Best CI Level,[4]; [21],20
same,Bliss Volume,[4]; [21],0.17
same,HSA volume,[4]; [21],1.01
same,Loewe Volume,[4]; [21],0.29
same,Synergy Score,[4]; [21],1.39
CN1CCN(c2ccc(OC(F)(F)F)c(Nc3ncc4c(n3)-c3c(c(C(N)=O)nn3CCO)CC4)c2)CC1 [Onvansertib],EC50,[1]; [5],49.4 nM
same,EC50,[1]; [6],49.4 nM
same,IC50,[1]; [5],61.6 nM
same,Emax,[1]; [7],79%
same,GI50,[1]; [6],51.7 nM
same,Emax,[1]; [8],97%
same,Best CI,[1]; [9],0.96
same,Bliss Volume,[1]; [9],0.53
same,HSA volume,[1]; [9],−0.64
same,Loewe Volume,[1]; [9],−1.49
same,Synergy Score,[1]; [9],2.51
same,Response Area,[1]; [5],3.29
same,Response Area,[1]; [10],4.03
same,Best CI,[1]; [11],0.90
same,Best CI Level,[1]; [11],20
same,Bliss Volume,[1]; [11],−2.22
same,HSA volume,[1]; [11],−0.87
same,Loewe Volume,[1]; [11],−1.32
same,Synergy Score,[1]; [11],0.70
same,EC50,[2]; [5],16.7 nM
same,EC50,[2]; [6],18.2 nM
same,IC50,[2]; [5],20.3 nM
same,Emax,[2]; [7],82%
same,GI50,[2]; [6],18.3 nM
same,Emax,[2]; [8],127%
same,Best CI,[2]; [12],0.27
same,Bliss Volume,[2]; [12],−1.00
same,HSA volume,[2]; [12],−5.36
same,Loewe Volume,[2]; [12],−3.73
same,Synergy Score,[2]; [12],6.46
same,Response Area,[2]; [5],3.36
same,Response Area,[2]; [10],4.69
same,Best CI,[2]; [13],0.38
same,Best CI Level,[2]; [13],75
same,Bliss Volume,[2]; [13],−3.69
same,HSA volume,[2]; [13],−3.63
same,Loewe Volume,[2]; [13],−3.23
same,Synergy Score,[2]; [13],1.36
same,GI50,"[3]; Homo sapiens, Panc 04.03, 72 h",50.8 nM
same,EC50,[3]; [14],18.7 nM
same,EC50,[3]; [15],19.2 nM
same,Emax,[3]; [16],70%
same,Emax,[3]; [17],54%
same,Best CI,[3]; [18],0.32
same,Bliss Volume,[3]; [18],2.32
same,HSA volume,[3]; [18],0.85
same,Loewe Volume,[3]; [18],0.87
same,Synergy Score,[3]; [18],1.99
same,Response Area,[3]; [5],1.94
same,Response Area,[3]; [10],2.60
same,Best CI,[3]; [19],0.64
same,Best CI Level,[3]; [19],20
same,Bliss Volume,[3]; [19],0.17
same,HSA volume,[3]; [19],0.61
same,Loewe Volume,[3]; [19],0.89
same,Synergy Score,[3]; [19],0.98
same,EC50,[4]; [5],35.4 nM
same,EC50,[4]; [6],42.1 nM
same,IC50,[4]; [5],53.4 nM
same,Emax,[4]; [7],76%
same,GI50,[4]; [6],34.1 nM
same,Emax,[4]; [8],118%
same,Best CI,[4]; [20],0.78
same,Bliss Volume,[4]; [20],0.66
same,HSA volume,[4]; [20],−1.30
same,Loewe Volume,[4]; [20],−4.09
same,Synergy Score,[4]; [20],0.88
same,Response Area,[4]; [5],3.32
same,Response Area,[4]; [10],5.06
same,Best CI,[4]; [21],0.76
same,Best CI Level,[4]; [21],20
same,Bliss Volume,[4]; [21],−1.39
same,HSA volume,[4]; [21],−0.59
same,Loewe Volume,[4]; [21],−2.03
same,Synergy Score,[4]; [21],0.33
